Data published in ChEMBL document CHEMBL1154228, “Photoregulation of thrombin aptamer activity using Bhc caging strategy” (Bioorg Med Chem Lett, 2009).

What was measured:
Prothrombin [1] = target: T1, Prothrombin (Homo sapiens, UniProt P00734); assay: Binding affinity to thrombin in presence of 100 mJ/cm'2 UV light by surface plasmon resonance assay
Prothrombin [2] = target: T1, Prothrombin; assay: Binding affinity to thrombin by surface plasmon resonance assay

Kd (Prothrombin [1]): 390 nM
Kd (Prothrombin [2]): 320 nM
SMILES: Cc1cn([C@H]2C[C@H](OP(=O)(O)OC[C@H]3O[C@@H](n4cnc5c(=O)[nH]c(N)nc54)[C@H](O)[C@@H]3OP(=O)(O)OC[C@H]3O[C@@H](n4cnc5c(=O)[nH]c(N)nc54)[C@H](O)[C@@H]3OP(=O)(O)OC[C@H]3O[C@@H](n4cc(C)c(=O)[nH]c4=O)C[C@@H]3OP(=O)(O)OC[C@H]3O[C@@H](n4cc(C)c(=O)[nH]c4=O)C[C@@H]3OP(=O)(O)OC[C@H]3O[C@@H](n4cnc5c(=O)[nH]c(N)nc54)[C@H](O)[C@@H]3OP(=O)(O)OC[C@H]3O[C@@H](n4cnc5c(=O)[nH]c(N)nc54)[C@H](O)[C@@H]3O)[C@@H](COP(=O)(O)O[C@H]3[C@@H](O)[C@H](n4cnc5c(=O)[nH]c(N)nc54)O[C@@H]3COP(=O)(O)O[C@H]3C[C@H](n4cc(C)c(=O)[nH]c4=O)O[C@@H]3COP(=O)(O)O[C@H]3[C@@H](O)[C@H](n4cnc5c(=O)[nH]c(N)nc54)O[C@@H]3COP(=O)(O)O[C@H]3[C@@H](O)[C@H](n4cnc5c(=O)[nH]c(N)nc54)O[C@@H]3COP(=O)(O)O[C@H]3C[C@H](n4cc(C)c(=O)[nH]c4=O)O[C@@H]3COP(=O)(O)O[C@H]3C[C@H](n4cc(C)c(=O)[nH]c4=O)O[C@@H]3COP(=O)(O)O[C@H]3[C@@H](O)[C@H](n4cnc5c(=O)[nH]c(N)nc54)O[C@@H]3COP(=O)(O)O[C@H]3[C@@H](O)[C@H](n4cnc5c(=O)[nH]c(N)nc54)O[C@@H]3CO)O2)c(=O)[nH]c1=O [THROMBIN APTAMER]
